In data set [1] the test system is Long Evans and Sprague Dawley rats. As to conditions: CTX 37.5 mg/kg once i.p. The procedure:
Specifically, Long Evans and Sprague Dawley rats with pups were purchased from Harlan Laboratories, Inc. They were housed and fed according to applicable animal handling rules and regulations. Pups were allowed to acclimate for 48 hours prior to the start of experiments. […] Rats were isolated from their littermates and mother for 6-hour periods of time. Subsequently, the treated area was cleaned with soap and water and pups were returned to their litters. On day 13, rats either received etoposide (1.5 mg/kg daily for 3 days) or cyclophosphamide (CTX) (37.5 mg/kg once) or combination cyclophosphamide (35 mg/kg once) and doxorubicin (2.5 mg/kg daily for 3 days). All chemotherapies were purchased from Sigma and were given intraperitoneally (i.p.) in a total volume of 0.1 mL. Alopecia was recorded 10 days after the last dose of chemotherapy.

The subject of a further data set is MIAC51. The data set can be described thus: Cure / survival rate of chloroleukemic rats after chemotherapy. The format is in vivo, rat. As to conditions: CTX, after two rounds of chemotherapy. The protocol: On day 5 after birth all rats received 1×105 MIAC51 intraperitoneally in 0.1 mL of serum free (SF) RPMI. MIAC51 were cultured in RPMI 1640 supplemented with L-glutamine and 10% fetal bovine serum at […] in a 5% CO2, 100% humidity incubator. Cells were grown to 50% confluency (1.5×106 mL) collected in 50 mL conical tubes, centrifuged at 600 g for 10 minutes at room temperature and resuspended in SF-RPMI at a concentration of 1×10^6/mL prior to injection.

In a further data set the test system is Long Evans Rats. Kind of data set: Alopecia in chloroleukemic Long Evans rats receiving multi-course chemotherapy. The format is in vivo, rat. As to conditions: CTX. The source says: Animals were then randomized in four groups.
Treatments were started on day 6 after birth.
Unused preparations were disposed of.

`O=P1(N(CCCl)CCCl)NCCCO1` (stereo not drawn) [CTX]: the “alopecia in control rats that received cyclophosphamide” value in data set [1] is “totally alopecic”. In addition, the “% cured / survival rate” value with MIAC51 amounted to 20%. Moreover, the “Cured (number of rats)” value with MIAC51 (of 40) amounted to 8. Also, the “extent of alopecia (grade)” value with Long Evans Rats (first round of chemotherapy, all rats) was “+4”. Moreover, the “rats with alopecia grade 4+ (number)” value is 40 in the data set on Long Evans Rats (first round, 4+ = 75-100% alopecia, of 40) and 8 with Long Evans Rats (second round, of 8).

Values taken from US20220023317A1, “PREVENTING OR MITIGATING CHEMOTHERAPY INDUCED ALOPECIA USING VITAMIN D” (Berg LLC, priority 2013, published 2022).
